According to patent publication US5508311A, “Aliphatic propargylamines as selective MAO-B inhibitors and as neuroprotective agents” (University of Saskatchewan, priority 1993, dated 1996):
pIC50: −log10 of the molar value. Structures can show the parent of a compound that is named as a salt. Where two headings read alike, the source gives them in different places. Values belong to the compound of their own block, whether it stands above or below them.

Columns and labels:
MAO-A [1] = molecular target: T1, MAO-A (Rattus norvegicus, UniProt P21396); experiment: biochemical; assay type: biochemical
T1 sequence (P21396 1-526): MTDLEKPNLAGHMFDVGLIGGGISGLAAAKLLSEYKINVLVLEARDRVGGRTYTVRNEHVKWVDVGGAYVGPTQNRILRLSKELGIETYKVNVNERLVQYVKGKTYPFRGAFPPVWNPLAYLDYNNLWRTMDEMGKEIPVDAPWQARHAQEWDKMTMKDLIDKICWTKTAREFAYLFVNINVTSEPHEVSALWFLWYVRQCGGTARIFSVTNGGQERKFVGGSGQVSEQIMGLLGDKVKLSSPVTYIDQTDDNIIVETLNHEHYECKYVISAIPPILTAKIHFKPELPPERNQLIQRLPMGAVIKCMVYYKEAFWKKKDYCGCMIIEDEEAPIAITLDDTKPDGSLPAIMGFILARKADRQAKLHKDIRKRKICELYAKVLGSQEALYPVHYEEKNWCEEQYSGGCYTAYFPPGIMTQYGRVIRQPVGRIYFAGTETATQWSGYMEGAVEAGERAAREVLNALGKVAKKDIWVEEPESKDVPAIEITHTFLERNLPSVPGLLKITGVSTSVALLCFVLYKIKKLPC
Method: (§1) The aliphatic propargylamine inhibitors (from 1×10^-10 M to 1×10^-4 M) were preincubated with the MAO for 20 min. at ambient room temperature and then the residual enzyme activities were determined by addition of the substrates, followed by further incubation at 37° C. for 30 min. The enzymatic reactions were terminated by the addition of citric acid and the aldehyde products were extracted with toluene: ethyl acetate (1:1, v/v) and the radio-activities assessed in a scintillation counter.

MAO-B [2] = molecular target: T2, MAO-B (Rattus norvegicus, UniProt P19643); experiment: biochemical; assay type: biochemical
T2 sequence (P19643 1-520): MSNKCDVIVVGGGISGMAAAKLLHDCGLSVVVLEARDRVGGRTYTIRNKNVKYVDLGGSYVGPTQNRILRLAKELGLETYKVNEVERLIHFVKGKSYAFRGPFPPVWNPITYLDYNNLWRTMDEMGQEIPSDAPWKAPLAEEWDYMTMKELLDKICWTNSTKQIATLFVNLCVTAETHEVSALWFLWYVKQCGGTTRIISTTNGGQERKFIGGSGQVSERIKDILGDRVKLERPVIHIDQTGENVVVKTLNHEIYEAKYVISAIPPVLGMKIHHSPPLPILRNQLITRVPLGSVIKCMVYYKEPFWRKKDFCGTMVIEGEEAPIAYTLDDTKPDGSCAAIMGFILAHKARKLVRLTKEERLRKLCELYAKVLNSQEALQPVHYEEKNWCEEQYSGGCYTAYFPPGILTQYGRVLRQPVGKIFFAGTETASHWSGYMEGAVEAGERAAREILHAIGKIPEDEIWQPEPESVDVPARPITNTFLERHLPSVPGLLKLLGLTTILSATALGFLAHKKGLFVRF
Method: as §1

monoamine oxidase = experiment: Inhibition of rat liver monoamine oxidase deamination of dopamine (DA, mixed-type MAO A and B substrate) in vitro; assay type: biochemical; conditions: substrate DA (5 × 10^-4 M), average of at least 3 independent experiments
Method: as §1

MAO-B [3] = molecular target: T3, MAO-B (Mus musculus, UniProt Q8BW75); experiment: in vivo; assay type: in vivo; conditions: mouse, ip
T3 construct: MAO activities in the mouse brain after; from tissue
T3 sequence (Q8BW75 1-520): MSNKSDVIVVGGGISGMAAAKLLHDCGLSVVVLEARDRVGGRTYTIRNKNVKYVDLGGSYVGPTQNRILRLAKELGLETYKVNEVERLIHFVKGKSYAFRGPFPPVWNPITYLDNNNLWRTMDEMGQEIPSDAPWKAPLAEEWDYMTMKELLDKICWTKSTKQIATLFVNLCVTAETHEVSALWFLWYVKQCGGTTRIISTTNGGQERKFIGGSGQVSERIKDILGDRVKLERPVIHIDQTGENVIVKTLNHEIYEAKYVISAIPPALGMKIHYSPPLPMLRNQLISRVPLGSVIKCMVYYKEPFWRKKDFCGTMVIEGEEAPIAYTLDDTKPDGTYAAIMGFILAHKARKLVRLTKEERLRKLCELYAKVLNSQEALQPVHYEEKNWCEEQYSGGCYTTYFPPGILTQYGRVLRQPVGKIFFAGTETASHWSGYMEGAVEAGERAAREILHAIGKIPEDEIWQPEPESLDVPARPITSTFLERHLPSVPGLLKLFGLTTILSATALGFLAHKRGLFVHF
Method: (§2) Albino Swiss mice were used in this study. The animals were injected intraperitoneally with different doses of the aliphatic propargylamines in 100 μL saline.
(§3) 0.5, 1, 2, 5, 10, 20, 50, 100 mg/Kg. Striata were dissected from the brai
(§4) two hours after i.p. administration of the drugs. MAOA and MAOB activitie
(§5) were determined immediately. The values were estimated from doseresponse

MAO-A [4] = molecular target: T4, MAO-A (Mus musculus, UniProt Q64133); experiment: in vivo; conditions: ip, 2 h, read-out: 5-HT ID50
T4 construct: MAO activities in the mouse brain after; from tissue
T4 sequence (Q64133 1-526): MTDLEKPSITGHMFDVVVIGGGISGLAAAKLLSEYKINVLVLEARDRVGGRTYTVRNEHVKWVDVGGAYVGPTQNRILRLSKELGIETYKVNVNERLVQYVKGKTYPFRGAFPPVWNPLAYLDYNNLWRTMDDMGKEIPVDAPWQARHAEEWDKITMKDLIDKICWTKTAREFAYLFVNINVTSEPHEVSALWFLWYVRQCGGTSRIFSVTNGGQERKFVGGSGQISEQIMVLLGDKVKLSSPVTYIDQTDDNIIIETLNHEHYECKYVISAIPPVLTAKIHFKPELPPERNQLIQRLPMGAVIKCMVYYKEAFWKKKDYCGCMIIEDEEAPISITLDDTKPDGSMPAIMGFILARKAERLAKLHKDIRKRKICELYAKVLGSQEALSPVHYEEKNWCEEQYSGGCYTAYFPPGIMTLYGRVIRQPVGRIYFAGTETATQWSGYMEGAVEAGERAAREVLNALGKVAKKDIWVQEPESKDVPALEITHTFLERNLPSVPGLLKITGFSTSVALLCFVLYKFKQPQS
Method: as §2, §3, §4, §5

MAO-B [5] = molecular target: T3, MAO-B; experiment: MAO-B activity in the mouse brain after oral administration (substrate PE); assay type: in vivo
Method: (§6) Table 3 indicates the MAO activities in the mouse brain following oral administration of the aliphatic propargylamines.
(§7) of each compound. Striata were dissected from the brain two hours after
(§8) the administration of the drugs. MAOA and MAOB activities were determined
Striata were dissected from the brain two
hours after oral administration of the drugs. MAOB activities were then
determined immediately. The values were estimated from doseresponse

MAO-A [6] = molecular target: T4, MAO-A; assay type: in vivo; conditions: mouse, in vivo, po, 10 mg/kg
Method: as §6, §7, §8

[7] = substrate 5-HT (5 × 10^-4 M), rat liver MAO, in vitro, average of at least 3 independent experiments
[8] = substrate PE (1.9 × 10^-5 M), rat liver MAO, in vitro, average of at least 3 independent experiments
[9] = […], rat liver MAO, in vitro, average of at least 3 independent experiments, read-out: PE IC50

SMILES: C#CCN(C)CCCCCCO.Cl [Example 6-OH-Hx1MP, N-(6-Hydroxy-1-hexyl)-N-methylpropargylamine-HCl]
5-HT IC50 (MAO-A [1]; [7]): inactive
pIC50 (MAO-B [2]; [8]): 4.00

SMILES: C#CCN(C)C(C)CCCC(=O)OCC.Cl (centres unmarked) [Example 5-CP2MP, N-(5-Carbethoxy-2-pentyl)-N-methylpropargylamine-HCl]
5-HT IC50 (MAO-A [1]; [7]): inactive
PE IC50 (MAO-B [2]): inactive
DA IC50 (monoamine oxidase): inactive

SMILES: C#CCN(C)CCCCCl.Cl [Cl-1-BuMP, N-(4-Chloro-1-butyl)-N-methylpropargylamine-HCl]
pIC50 (MAO-A [1]; [7]): < 4.00
pIC50 (MAO-B [2]; [9]): 5.00
Ratio MAO-A/MAO-B (MAO-B [2]; ratio of IC50 values, in vitro): > 10

5-HT IC50 (MAO-A [1]; [7]): inactive
PE IC50 (MAO-B [2]; [8]): inactive
SMILES: C#CCN(CC)C(C)CC (centres unmarked) [Example 2-BuEP, N-(2-Butyl)-N-ethylpropargylamine hydrochloric salt]

SMILES: C#CCNC(C)CC.Cl (centres unmarked) [Example 2-BuPP, N-(2-Butyl)propargylamine hydrochloride salt]
5-HT IC50 (MAO-A [1]; [7]): inactive
PE IC50 (MAO-B [2]): inactive

5-HT IC50 (MAO-A [1]; [7]): no effect
pIC50 (MAO-B [2]; [9]): 4.70
pIC50 (monoamine oxidase): 4.52
SMILES: C#CCN(C)C(C)C.Cl [Example 2-PrMP, N-Methyl-N-(2-propyl)propargylamine hydrochloride]

SMILES: C#CCN(C)C(C)CCCCCCCCCC.Cl (centres unmarked) [Example 2-DdMP, N-(2-dodecyl)-N-methylpropargylamine-HCl]
pIC50 (MAO-A [1]; read-out: 5-HT IC50): 5.70
Ratio MAO-A/MAO-B (MAO-B [2]; rat, liver mitochondrial membranes): 50
pIC50 (MAO-B [2]; [8]): 7.40
pIC50 (monoamine oxidase): 6.52
MAO-B ID50 (mg/Kg) / IC50 (1 × 10^-6 M) (MAO-B [3]; in vivo): 100
Ratio MAO-A/MAO-B (MAO-B [3]; in vivo, 120 min): 15
ED50 (MAO-B [3]; 2 h, read-out: PE ID50): 4 mg/kg
ED50 (MAO-A [4]): 60 mg/kg
effectiveness in blocking MAO-B activity in vivo after acute oral administration (in words) (MAO-B [5]; mouse, oral): less potent at inhibiting MAO-B activity in vivo after acute administration
Relative activity PE (MAO-B [5]; oral 10 mg/Kg, 2 hours, PE (1.9 × 10^-5 M), mean ± standard error, saline = 100): 64 ± 8%
Relative activity 5-HT (MAO-A [6]): 107 ± 14
